Consider 13 molecules from patent publication US20260374794A1, “COMPOUNDS TARGETING MUTANT OF P53” (JACOBIO PHARMACEUTICALS CO., LTD., priority 2022, published 2026).

Usually IC50 stands for the concentration that gives 50% inhibition. A high value points to lower potency.

One experiment concerns the target p53(Y220C)_NUGC-3 (Homo sapiens, UniProt P04637, Y220C). As to the kind of experiment: Reporter gene assay (NUGC-3_P53_Luc cells). It is filed as cell-based. To be noted: 6 hours, 37 °C, luciferase, normalized to Ref-1a 10 μM, EC50 = concentration at 50% Activity, read-out: p53(Y220C)_NUGC-3 EC50. As to the method:
NUGC-3_P53_Luc single clonal cell line was established using pGL4.38[luc2P/p53 RE/Hygro] Vector (E365A, promega). NUGC-3_P53_Luc single clonal cells were cultured in 37 °C cell incubator before use. NUGC-3_P53_Luc cells were collected and washed twice with PBS to remove phenol red and then resuspended in medium to a proper concentration. Tested compound dilutions were transferred into 384 well assay plates (PerkinElmer). A desired number of cells was seeded into the assay plate and cultured for 6 hours at 37 °C cell incubator. Britelite plus Luciferase Assay Reagent were added into each well and the luminescence value was recorded on Envision. The percent of activity value of compounds treated wells was normalized between high control and low control. Wells containing cells and Ref-la (10 μM) served as high control, and wells containing cells and same percentage of DMSO served as low control. Activity value (%)=(Luminescence readoutCompound treated−Luminescence readoutLow control)/(Luminescence readoutHigh control−Luminescence readoutLow control)*100%. Then the data were analyzed either by fitting a 4-parameter logistic model or by Excel to calculate EC50 values and the EC50 was the concentration at 50% Activity on the curve.
A general note: A reporter such as luciferase makes a cellular process visible.

A further experiment deals with NUGC-3 (P53 Y220C). The experiment can be described thus: Cell viability assay (CellTiter-Glo). It is filed as cell-based. To be noted: NUGC-3 cells, 6 days, 37 °C. As to the method: Cells were collected and counted. A desired number of cells was seeded into 96-well microplate and cultured in 37 °C cell incubator overnight. Compounds dissolved in cell culture medium were added into cell plate and cultured for 6 days. After balancing CellTiter-Glo reagent and cells at room temperature for 30 min, equal volume of CellTiter-Glo reagents was added to assay plate and shaken for 2 min for cell lysis. The cells were balanced at room temperature for 10 minutes and Luminescence signal was read using Envision. The percent of cell viability for compounds treated wells were normalized between High control and low control. Wells containing cell culture medium and same percentage DMSO served as Low control. Wells containing cells and same percentage DMSO served as High control. Cell viability (%)=(Luminescence readoutCompound treated−Luminescence readoutLow control)/(Luminescence readoutHigh control−Luminescence readoutLow control)*100%. Then the data were analyzed either by fitting a 4-parameter logistic model or by Excel to calculate IC50 values. And the IC50 was the concentration at […] Cell viability on the curve.

For the next experiment, the target named is T1, p53(Y220C) (Homo sapiens, UniProt P04637, Y220C).
T1 construct: His-p53 Y220C (94-294) protein
As to the kind of experiment: In vitro DNA binding assay (HTRF), His-p53 Y220C (94-294) with biotinylated p53 consensus DNA. It is filed as biochemical. Particulars: HTRF; 27 °C; His-p53 Y220C (94-294) 2.5 nM; biotinylated DNA 10 nM; normalized to 2 μM Ref-1a; EC50 = concentration at 50% Activation; read-out: p53(Y220C) EC50. As to the method:
After His-p53 Y220C (94-294) protein was placed with a compound in the present of MAb Anti His-Tb cryptate (Cisbio, Cat. NO. 61HI2TLA) in a 384 well microplate (Greiner) for 15 min at 25 °C, the assay plate was transferred into 27 °C incubator and incubated for 60 min. Biotinalyted p53 consensus DNA (ID: p53-SEQUENCE 2 —F: 5′(biotin)-[…] 3′ —R: 5′ […] 3′) was added into the assay plate in the present of Streptaidin-d2 (Cisbio, Cat. NO. 610SADLF) cryptate (Final concentration: 20 mM HEPES pH=7.4, 75 mM KCl, 1 mM MgCl2, 0.1% (w/v) BSA, 1 mM DTT, 2.5 nM His-P53 Y220C (94-294) protein, 0.33 nM MAb Anti His-Tb cryptate, 2.5 nM Streptaidin-d2 cryptate, 10 nM Biotinalyted DNA) and incubated for another 60 min. Wells containing 2 μM reference compound Ref-1a served as high control, and wells containing same percentage of DMSO served as low control. Homogeneous time-resolved fluorescence (HTRF) signals were read on Tecan Spark multimode microplate reader. HTRF ratios for each individual well were calculated by equation: HTRF ratio=(Signal F665/Signal F620)*1000. The percent of activation of compounds treated wells were normalized between high control and low control (% Activation=(HTRF ratiocompound treated−HTRF ratiolow control)/(HTRF ratiohigh control−HTRF ratiolow control)*100%). Then the data were analyzed either by fitting a 4-parameter logistic model or by Excel to calculate EC50 values. And the EC50 was the concentration at 50% Activation on the curve.
In general terms: TR-FRET usually uses a lanthanide donor and a delayed reading to cut background.

For the molecule `COc1cc(S(=N)(=O)C2CCOCC2)ccc1NCC#Cc1sc2c(NC3CCN(C)CC3F)cccc2c1CC(F)(F)F` [Example 24, (S)-(4-((3-(7-(((3S,4R)-3-fluoro-1-methylpiperidin-4-yl)amino)-3-(2,2,2-trifluoroethyl)benzo[b]thiophen-2-yl)prop-2-yn-1-yl)amino)-3-methoxyphenyl)(imino)(tetrahydro-2H-pyran-4-yl)-16-sulfanone], the EC50 was 119 nM on p53(Y220C)_NUGC-3 and 68 nM at p53(Y220C). The molecule further had an IC50 with NUGC-3 (P53 Y220C) (Homo sapiens, 144 h) of 900 nM.
Turning to `COc1cc([S@@](C)(=N)=O)ccc1NCC#Cc1sc2c(N[C@@H]3CCN(C)C[C@@H]3F)cccc2c1[C@@H](O)C(F)(F)F` [Example 60, (S)-(4-((3-(7-(((3S,4R)-3-fluoro-1-methylpiperidin-4-yl)amino)-3-((R)-2,2,2-trifluoro-1-hydroxyethyl)benzo[b]thiophen-2-yl)prop-2-yn-1-yl)amino)-3-methoxyphenyl)(imino)(methyl)-16-sulfanone], the EC50 at p53(Y220C)_NUGC-3 was determined as 281 nM; on p53(Y220C), 74 nM. This molecule also had an IC50 in the experiment on NUGC-3 (P53 Y220C) of 1800 nM.
`COc1c(NCC#Cc2sc3c(N[C@@H]4CCN(C)C[C@@H]4F)cccc3c2CC(F)(F)F)ccc(P(C)(C)=O)c1C` [Example 41, (4-((3-(7-(((3S,4R)-3-fluoro-1-methylpiperidin-4-yl)amino)-3-(2,2,2-trifluoroethyl)benzo[b]thiophen-2-yl)prop-2-yn-1-yl)amino)-3-methoxy-2-methylphenyl)dimethylphosphine oxide]: the values for the EC50 at p53(Y220C)_NUGC-3 and on p53(Y220C) were 137 nM and 56 nM, respectively. The molecule further registered an IC50 in the experiment with NUGC-3 (P53 Y220C) (Homo sapiens, 144 h) of 1230 nM.
Regarding `COc1cc([S@@](C)(=N)=O)ccc1NCC#Cc1sc2c(N[C@H]3CCN(C)C[C@H]3F)cccc2c1[C@@H](O)C(F)(F)F` [Example 61, (S)-(4-((3-(7-(((3R,4S)-3-fluoro-1-methylpiperidin-4-yl)amino)-3-((R)-2,2,2-trifluoro-1-hydroxyethyl)benzo[b]thiophen-2-yl)prop-2-yn-1-yl)amino)-3-methoxyphenyl)(imino)(methyl)-16-sulfanone], the EC50 on p53(Y220C)_NUGC-3 came out at 78 nM; at p53(Y220C) it was 36 nM. This molecule also yielded an IC50 with NUGC-3 (P53 Y220C) (Homo sapiens, 144 h) of 380 nM.
Consider `COc1cc([S@](=N)(=O)C2CC2)ccc1NCC#Cc1sc2c(N[C@@H]3CCN(C)C[C@@H]3F)cccc2c1CC(F)(F)F` [Example 53, (R)-cyclopropyl(4-((3-(7-(((3S,4R)-3-fluoro-1-methylpiperidin-4-yl)amino)-3-(2,2,2-trifluoroethyl)benzo[b]thiophen-2-yl)prop-2-yn-1-yl)amino)-3-methoxyphenyl)(imino)-16-sulfanone], for which the values for the EC50 at p53(Y220C)_NUGC-3 and at p53(Y220C) were 128 nM and 39 nM, respectively. In the experiment on NUGC-3 (P53 Y220C), this molecule displayed an IC50 of 680 nM.
As for `CN1CC[C@@H](Nc2cccc3c(CC(F)(F)F)c(C#CCNc4ccc(P(C)(C)=O)cc4-c4cc[nH]n4)sc23)[C@@H](F)C1` [Example 3, (4-((3-(7-(((3S,4R)-3-fluoro-1-methylpiperidin-4-yl)amino)-3-(2,2,2-trifluoroethyl)benzo[b]thiophen-2-yl)prop-2-yn-1-yl)amino)-3-(1H-pyrazol-3-yl)phenyl)dimethylphosphine oxide], on p53(Y220C)_NUGC-3, the EC50 worked out at 55 nM. In the experiment with NUGC-3 (P53 Y220C) (Homo sapiens, 144 h), this molecule displayed a concentration for half-maximal inhibition (IC50) of 1400 nM.
For `COc1cc([S@@](C)(=N)=O)ccc1NCC#Cc1sc2c(N[C@@H]3CCN(C)C[C@H]3F)cccc2c1[C@@H](O)C(F)(F)F` [Example 59, (S)-(4-((3-(7-(((3R,4R)-3-fluoro-1-methylpiperidin-4-yl)amino)-3-((R)-2,2,2-trifluoro-1-hydroxyethyl)benzo[b]thiophen-2-yl)prop-2-yn-1-yl)amino)-3-methoxyphenyl)(imino)(methyl)-16-sulfanone], the EC50 was determined as 266 nM on p53(Y220C)_NUGC-3 and 109 nM at p53(Y220C). Moreover, the IC50 in the experiment on NUGC-3 (P53 Y220C) (Homo sapiens, 144 h) turned out to be 2060 nM.
The matching figures for `COc1cc(P(C)(C)=O)ccc1NCC#Cc1sc2c(NC3CN(C)CC3F)cccc2c1CC(F)(F)F` (centres unmarked) [Example 13, (4-((3-(7-((4-fluoro-1-methylpyrrolidin-3-yl)amino)-3-(2,2,2-trifluoroethyl)benzo[b]thiophen-2-yl)prop-2-yn-1-yl)amino)-3-methoxyphenyl)dimethylphosphine oxide]: 138 nM, 104 nM and 1390 nM.
With `COc1cc([S@@](=N)(=O)C2COC2)ccc1NCC#Cc1sc2c(N[C@@H]3CCN(C)C[C@@H]3F)cccc2c1CC(F)(F)F` [Example 50, (S)-(4-((3-(7-(((3S,4R)-3-fluoro-1-methylpiperidin-4-yl)amino)-3-(2,2,2-trifluoroethyl)benzo[b]thiophen-2-yl)prop-2-yn-1-yl)amino)-3-methoxyphenyl)(imino)(oxetan-3-yl)-16-sulfanone], the EC50 on p53(Y220C)_NUGC-3 was determined as 76 nM; at p53(Y220C), 25 nM. The molecule also had an IC50 in the experiment with NUGC-3 (P53 Y220C) (Homo sapiens, 144 h) of 1080 nM.
The like results for `CN1CC[C@@H](Nc2cccc3c(CC(F)(F)F)c(C#CCNc4ccc(P(C)(C)=O)c5c4C(=O)NC5)sc23)[C@@H](F)C1` [Example 55, 4-(dimethylphosphoryl)-7-((3-(7-(((3S,4R)-3-fluoro-1-methylpiperidin-4-yl)amino)-3-(2,2,2-trifluoroethyl)benzo[b]thiophen-2-yl)prop-2-yn-1-yl)amino)isoindolin-1-one] were, in that order, 196 nM, 31 nM and 1290 nM.
In the case of `COc1c(NCC#Cc2sc3c(N[C@@H]4CCN(C)C[C@@H]4F)cccc3c2CC(F)(F)F)ccc(P(C)(C)=O)c1C(F)(F)F` [Example 42, (4-((3-(7-(((3S,4R)-3-fluoro-1-methylpiperidin-4-yl)amino)-3-(2,2,2-trifluoroethyl)benzo[b]thiophen-2-yl)prop-2-yn-1-yl)amino)-3-methoxy-2-(trifluoromethyl)phenyl)dimethylphosphine oxide], the EC50 at p53(Y220C)_NUGC-3 is 252 nM; at p53(Y220C) it was 93 nM. In the experiment on NUGC-3 (P53 Y220C) (Homo sapiens, 144 h), it took 1890 nM to reach half-maximal inhibition (IC50).
The like results for `COc1cc(S(C)(=O)=O)ccc1NCC#Cc1sc2c(N[C@@H]3CCN(C)C[C@@H]3F)cccc2c1CC(F)(F)F` [Example 36, (3S,4R)-3-fluoro-N-(2-(3-((2-methoxy-4-(methylsulfonyl)phenyl)amino)prop-1-yn-1-yl)-3-(2,2,2-trifluoroethyl)benzo[b]thiophen-7-yl)-1-methylpiperidin-4-amine] were, in that order, 117 nM, 81 nM and 590 nM.
The matching figures for `COc1cc([S@](=N)(=O)C(C)C)ccc1NCC#Cc1sc2c(N[C@@H]3CCN(C)C[C@@H]3F)cccc2c1CC(F)(F)F` [Example 26, (R)-(4-((3-(7-(((3S,4R)-3-fluoro-1-methylpiperidin-4-yl)amino)-3-(2,2,2-trifluoroethyl)benzo[b]thiophen-2-yl)prop-2-yn-1-yl)amino)-3-methoxyphenyl)(imino)(isopropyl)-16-sulfanone]: 208 nM, 70 nM and 1840 nM.
